From ChEMBL document CHEMBL1141781, “Antineoplastic agents. 542. Isolation and structure of sesterstatin 6 from the Indian Ocean sponge Hyrtios erecta” (2005)
Converted amounts (≈) assume the structure as drawn.

Experiments:
Type in all cases: functional
DU-145 = assay: Growth inhibition of human DU145 cells
P388 = assay: Growth inhibition of mouse P388 cells; settings: read-out: ED50 (the source's name)
NCI-H460 = assay: Growth inhibition of human NCI-H460 cells
BXPC-3 = assay: Growth inhibition of human BxPC3 cells
FaDu = assay: Growth inhibition of human FADU cells
U-251 = assay: Growth inhibition of human U251 cells
RPMI-7951 = assay: Growth inhibition of human RPMI7951 cells
SW-1736 = assay: Growth inhibition of human SW1736 cells
[1] = Growth inhibition of human KAT4 cells; settings: KAT-4

Row | GI50 (DU-145) | EC50 (P388) | GI50 (NCI-H460) | GI50 (BXPC-3) | GI50 (U-251) | GI50 (SW-1736) | Structure (SMILES) | GI50 (FaDu) | GI50 (RPMI-7951) | GI50 [1]
1 | 1.9 µg/mL (≈ 4.91 µM) | > 10 µg/mL | 2.5 µg/mL (≈ 6.47 µM) | 2.2 µg/mL (≈ 5.69 µM) | 1.9 µg/mL (≈ 4.91 µM) | – | CC1(C)CCC[C@]2(C)[C@H]3C[C@@H](O)[C@]4(C)c5cocc5[C@@H](O)C[C@H]4[C@]3(C)CC[C@@H]12 [SESTERSTATIN 5] | 1.9 µg/mL (≈ 4.91 µM) | 2.1 µg/mL (≈ 5.43 µM) | –
2 | 0.37 µg/mL (≈ 0.884 µM) | 0.17 µg/mL (≈ 0.406 µM) | 0.18 µg/mL (≈ 0.43 µM) | 0.44 µg/mL (≈ 1.05 µM) | – | 0.87 µg/mL (≈ 2.08 µM) | CC1(C)CCC[C@]2(C)[C@H]3C[C@@H](O)[C@]4(C)C5=C(C(=O)O[C@H]5O)[C@@H](O)C[C@H]4[C@]3(C)CC[C@@H]12 [SESTERSTATIN 6] | 0.89 µg/mL (≈ 2.13 µM) | – | 0.4 µg/mL (≈ 0.956 µM)

The next lines start with the compound.

Row | Structure (SMILES) | GI50 (DU-145) | EC50 (P388) | GI50 (NCI-H460) | GI50 (BXPC-3) | GI50 (U-251) | GI50 (SW-1736) | GI50 (FaDu) | GI50 (RPMI-7951) | GI50 [1]
3 | CC1(C)[C@@H](O)CC[C@]2(C)[C@H]3C[C@@H](O)[C@]4(C)C5=C(CC[C@H]4[C@]3(C)CC[C@@H]12)COC5=O [SESTERSTATIN 1] | – | 0.46 µg/mL (≈ 1.14 µM) | – | – | – | – | – | – | –
4 | CC1(C)CCC[C@]2(C)[C@H]3C[C@@H](O)[C@]4(C)c5cocc5[C@H](O)C[C@H]4[C@]3(C)CC[C@@H]12 [SESTERSTATIN 4] | 1.6 µg/mL (≈ 4.14 µM) | 4.9 µg/mL (≈ 12.7 µM) | 1.8 µg/mL (≈ 4.66 µM) | 1.6 µg/mL (≈ 4.14 µM) | – | 2.1 µg/mL (≈ 5.43 µM) | 2 µg/mL (≈ 5.17 µM) | – | 2 µg/mL (≈ 5.17 µM)
5 | C[C@@]1(CO)CCC[C@]2(C)[C@H]3C[C@@H](O)[C@]4(C)C5=C(CC[C@H]4[C@]3(C)CC[C@@H]12)COC5=O [SESTERSTATIN 3] | – | 4.3 µg/mL (≈ 10.7 µM) | – | – | – | – | – | – | –
6 | C[C@]1(CO)CCC[C@]2(C)[C@H]3C[C@@H](O)[C@]4(C)C5=C(CC[C@H]4[C@]3(C)CC[C@@H]12)COC5=O [SESTERSTATIN 2] | – | 4.2 µg/mL (≈ 10.4 µM) | – | – | – | – | – | – | –
